≈ marks a conversion by molar mass, not a printed value.
Assays:
[1] = tested on: Pseudomonas aeruginosa (P. aeruginosa) 27853; assay: Antibacterial activity, MIC (Table 5); format: cell-based; conditions: P. aeruginosa 27853, read-out: MIC, 27853
In short: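 Using a microbroth dilution format, the minimum inhibitory concentration was recorded as the lowest tested concentration that stopped visible bacterial growth, expressed in μg/mL.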

[2] = tested on: Escherichia coli (E. coli) BAS849; assay: Antibacterial activity, microbroth dilution MIC (Table 1); format: cell-based; conditions: microbroth dilution, super sensitive Gram-negative E. coli BAS849, read-out: MIC, BAS849
In short: (§1)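 Using broth microdilution, MIC endpoints (μg/mL) mark where visible growth no longer appears; the panel spans sensitive and control Gram-negative strains plus a Gram-positive strain.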

[3] = tested on: Staphylococcus aureus (S. aureus) 29213; assay: as above; format: cell-based; conditions: microbroth dilution, Gram-positive S. aureus 29213, read-out: MIC, 29213
In short: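 MIC (μg/mL) is taken as the lowest concentration with no macroscopically visible growth. Strains tested by microbroth dilution: Gram-positive S. aureus 29213, control Gram-negative E. coli 25922, and super-sensitive E. coli BAS849.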

E. coli 25922 = assay: as above; format: cell-based, Escherichia coli; conditions: Escherichia coli; microbroth dilution; control Gram-negative E. coli 25922 strain; read-out: MIC, 25922
In short: as §1

E. coli LZ3111 = assay: Antibacterial activity, MIC, quinolone resistant strain (Table 2); format: cell-based; conditions: Escherichia coli, LZ3111, read-out: MIC LZ3111
In short: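 Growth inhibition assessed by serial drug dilution in broth; endpoint was absence of macroscopically visible growth, reported as MIC, μg/mL.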

A. baumannii MXX2240 = assay: Antibacterial activity, MIC, resistant strain (Table 4); format: cell-based; conditions: Acinetobacter baumannii, MXX2240; resistant A. baumannii MMX2240, multi-drug resistant clinical isolate; read-out: MIC, MMX2240
In short: (§2)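 Broth microdilution; MIC (μg/mL) = lowest concentration with no macroscopically visible growth. Resistant strains: multi-drug resistant clinical isolates.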

K. pneumoniae MXX1232 = assay: as above; format: cell-based; conditions: Klebsiella pneumoniae, MXX1232; resistant K. pneumoniae MMX1232, multi-drug resistant clinical isolate; read-out: MIC, MMX1232
In short: as §2

[4] = tested on: Acinetobacter baumannii (A. baumannii) BAA747; assay: Antibacterial activity, MIC (Table 4); format: cell-based; conditions: A. baumannii BAA747, read-out: MIC, BAA747
In short: as §2

[5] = tested on: Klebsiella pneumoniae (K. pneumoniae) 35657; assay: Antibacterial activity, MIC (Table 4); format: cell-based; conditions: K. pneumoniae 35657, read-out: MIC, 35657
In short: as §2

In the case of `Cc1c(-c2ccc3[nH]ccc3c2)[nH]c(=O)c(C(=O)O)c1O` [Cpd 426, 4-hydroxy-6-(1H-indol-5-yl)-5-methyl-2-oxo-1,2-dihydropyridine-3-carboxylic acid], the MIC [1] is reported as 12.5 to 150 µg/mL (≈ 44 to 528 µM), the MIC [2] is reported as 3.5 to 12.5 µg/mL (≈ 12.3 to 44 µM) and the MIC [3] is reported as 12.5 to 150 µg/mL (≈ 44 to 528 µM). It also gave an MIC (E. coli 25922) of 12.5 to 150 µg/mL (≈ 44 to 528 µM), an MIC (E. coli LZ3111) of less than 1 µg/mL and an MIC (A. baumannii MXX2240) of less than 1 µg/mL. For the same compound, the MIC (K. pneumoniae MXX1232) was 12.5 to 150 µg/mL (≈ 44 to 528 µM), the MIC [4] was 12.5 to 150 µg/mL (≈ 44 to 528 µM) and the MIC [5] was 12.5 to 150 µg/mL (≈ 44 to 528 µM).

Work on `Cc1c(-c2ccc3c(c2)CC(=O)N3)[nH]c(=O)c(C(=O)O)c1O` [Cpd 427, 4-hydroxy-5-methyl-2-oxo-6-(2-oxoindolin-5-yl)-1,2-dihydropyridine-3-carboxylic acid] yielded an MIC [1] of 12.5 to 150 µg/mL (≈ 41.6 to 500 µM), an MIC [2] of 12.5 to 150 µg/mL (≈ 41.6 to 500 µM) and an MIC [3] of 12.5 to 150 µg/mL (≈ 41.6 to 500 µM). The MIC (E. coli 25922) was 12.5 to 150 µg/mL (≈ 41.6 to 500 µM), the MIC (E. coli LZ3111) was 12.5 to 150 µg/mL (≈ 41.6 to 500 µM) and the MIC (A. baumannii MXX2240) was 12.5 to 150 µg/mL (≈ 41.6 to 500 µM). It also gave an MIC (K. pneumoniae MXX1232) of 12.5 to 150 µg/mL (≈ 41.6 to 500 µM), an MIC [4] of 12.5 to 150 µg/mL (≈ 41.6 to 500 µM) and an MIC [5] of 12.5 to 150 µg/mL (≈ 41.6 to 500 µM).

With `CCc1c(-c2ccc3cc(N(C)C)ccc3c2)[nH]c(=O)c(C(=O)O)c1O` [Cpd 428, 6-(6-(dimethylamino)naphthalen-2-yl)-5-ethyl-4-hydroxy-2-oxo-1,2-dihydropyridine-3-carboxylic acid] the MIC [1] was 12.5 to 150 µg/mL (≈ 35.5 to 426 µM), the MIC [2] was less than 1 µg/mL and the MIC [3] was less than 1 µg/mL. The MIC (E. coli 25922) was 12.5 to 150 µg/mL (≈ 35.5 to 426 µM), the MIC (E. coli LZ3111) was 12.5 to 150 µg/mL (≈ 35.5 to 426 µM) and the MIC (A. baumannii MXX2240) was 12.5 to 150 µg/mL (≈ 35.5 to 426 µM). The MIC (K. pneumoniae MXX1232) was 12.5 to 150 µg/mL (≈ 35.5 to 426 µM), the MIC [4] was 12.5 to 150 µg/mL (≈ 35.5 to 426 µM) and the MIC [5] was 12.5 to 150 µg/mL (≈ 35.5 to 426 µM).

`CCc1c(-c2ccc3cc(C)cn3c2)[nH]c(=O)c(C(=O)O)c1O` [Cpd 429, 5-ethyl-4-hydroxy-6-(2-methylindolizin-6-yl)-2-oxo-1,2-dihydropyridine-3-carboxylic acid] showed an MIC [1] of 12.5 to 150 µg/mL (≈ 40 to 480 µM), an MIC [2] of 12.5 to 150 µg/mL (≈ 40 to 480 µM) and an MIC [3] of 12.5 to 150 µg/mL (≈ 40 to 480 µM). The MIC (E. coli 25922) was 12.5 to 150 µg/mL (≈ 40 to 480 µM), the MIC (E. coli LZ3111) was 12.5 to 150 µg/mL (≈ 40 to 480 µM) and the MIC (A. baumannii MXX2240) was 12.5 to 150 µg/mL (≈ 40 to 480 µM). For the same compound, the MIC (K. pneumoniae MXX1232) was 12.5 to 150 µg/mL (≈ 40 to 480 µM), the MIC [4] was 12.5 to 150 µg/mL (≈ 40 to 480 µM) and the MIC [5] was 12.5 to 150 µg/mL (≈ 40 to 480 µM).

`CCc1c(-c2cnc3cc[nH]c3c2)[nH]c(=O)c(C(=O)O)c1O` [Cpd 430, 5-ethyl-4-hydroxy-2-oxo-6-(1H-pyrrolo[3,2-b]pyridin-6-yl)-1,2-dihydropyridine-3-carboxylic acid] showed an MIC [1] of 12.5 to 150 µg/mL (≈ 41.8 to 501 µM), an MIC [2] of 12.5 to 150 µg/mL (≈ 41.8 to 501 µM) and an MIC [3] of 12.5 to 150 µg/mL (≈ 41.8 to 501 µM). For the same compound, the MIC (E. coli 25922) was 12.5 to 150 µg/mL (≈ 41.8 to 501 µM), the MIC (E. coli LZ3111) was 12.5 to 150 µg/mL (≈ 41.8 to 501 µM) and the MIC (A. baumannii MXX2240) was 12.5 to 150 µg/mL (≈ 41.8 to 501 µM). The MIC (K. pneumoniae MXX1232) was 12.5 to 150 µg/mL (≈ 41.8 to 501 µM), the MIC [4] was 12.5 to 150 µg/mL (≈ 41.8 to 501 µM) and the MIC [5] was 12.5 to 150 µg/mL (≈ 41.8 to 501 µM).

`Cc1c(-c2cnc3cc[nH]c3c2)[nH]c(=O)c(C(=O)O)c1O` [Cpd 431, 4-hydroxy-5-methyl-2-oxo-6-(1H-pyrrolo[3,2-b]pyridin-6-yl)-1,2-dihydropyridine-3-carboxylic acid] was tested, and the MIC [1] was 12.5 to 150 µg/mL (≈ 43.8 to 526 µM), the MIC [2] was 12.5 to 150 µg/mL (≈ 43.8 to 526 µM) and the MIC [3] was 12.5 to 150 µg/mL (≈ 43.8 to 526 µM). It also gave an MIC (E. coli 25922) of 12.5 to 150 µg/mL (≈ 43.8 to 526 µM), an MIC (E. coli LZ3111) of 12.5 to 150 µg/mL (≈ 43.8 to 526 µM) and an MIC (A. baumannii MXX2240) of 12.5 to 150 µg/mL (≈ 43.8 to 526 µM). For the same compound, the MIC (K. pneumoniae MXX1232) was 12.5 to 150 µg/mL (≈ 43.8 to 526 µM), the MIC [4] was 12.5 to 150 µg/mL (≈ 43.8 to 526 µM) and the MIC [5] was 12.5 to 150 µg/mL (≈ 43.8 to 526 µM).

`CCc1c(-c2ccc3c(c2)[nH]c2ccccc23)[nH]c(=O)c(C(=O)O)c1O` [Cpd 432, 6-(9H-carbazol-2-yl)-5-ethyl-4-hydroxy-2-oxo-1,2-dihydropyridine-3-carboxylic acid] gave an MIC [1] of 12.5 to 150 µg/mL (≈ 35.9 to 431 µM), an MIC [2] of less than 1 µg/mL and an MIC [3] of less than 1 µg/mL. For the same compound, the MIC (E. coli 25922) was 3.5 to 12.5 µg/mL (≈ 10 to 35.9 µM), the MIC (E. coli LZ3111) was 12.5 to 150 µg/mL (≈ 35.9 to 431 µM) and the MIC (A. baumannii MXX2240) was 12.5 to 150 µg/mL (≈ 35.9 to 431 µM). For the same compound, the MIC (K. pneumoniae MXX1232) was 12.5 to 150 µg/mL (≈ 35.9 to 431 µM), the MIC [4] was 1 to 3.5 µg/mL (≈ 2.87 to 10 µM) and the MIC [5] was 3.5 to 12.5 µg/mL (≈ 10 to 35.9 µM).

With `CCc1c(-c2ccc3cc[nH]c3n2)[nH]c(=O)c(C(=O)O)c1O` [Cpd 433, 5-ethyl-4-hydroxy-2-oxo-6-(1H-pyrrolo[2,3-b]pyridin-6-yl)-1,2-dihydropyridine-3-carboxylic acid] the MIC [1] was 12.5 to 150 µg/mL (≈ 41.8 to 501 µM), the MIC [2] was less than 1 µg/mL and the MIC [3] was 12.5 to 150 µg/mL (≈ 41.8 to 501 µM). The MIC (E. coli 25922) was 12.5 to 150 µg/mL (≈ 41.8 to 501 µM), the MIC (E. coli LZ3111) was 12.5 to 150 µg/mL (≈ 41.8 to 501 µM) and the MIC (A. baumannii MXX2240) was 12.5 to 150 µg/mL (≈ 41.8 to 501 µM). For the same compound, the MIC (K. pneumoniae MXX1232) was 12.5 to 150 µg/mL (≈ 41.8 to 501 µM), the MIC [4] was 3.5 to 12.5 µg/mL (≈ 11.7 to 41.8 µM) and the MIC [5] was 3.5 to 12.5 µg/mL (≈ 11.7 to 41.8 µM).
